Measured values published in patent publication US11807644B2 (PMV Pharmaceuticals, Inc., priority 2020, dated 2023).

Biological target: T1, recombinant His-tag Y220C p53 DBD protein (Homo sapiens, UniProt P04637, Y220C)
T1 construct: recombinant His-tag Y220C p53 DBD protein (amino acids #˜94-312)
Test: In vitro DNA binding activity assay (TR-FRET): binding of His-tag Y220C p53 DBD to biotin-labeled consensus DNA
Assay type: biochemical
Conditions: SC150 = concentration to increase DNA binding by […], His-tag Y220C p53 DBD, biotin-labeled consensus DNA
Description: DNA binding activity of the compounds was measured using a TR-FRET (Time-Resolved Fluorescence Resonance Energy Transfer) assay in which recombinant His-tag Y220C p53 DBD protein binds to biotin-labeled consensus DNA. Binding of recombinant His-tag Y220C p53 DBD protein and biotin-labeled consensus DNA was registered by the FRET (fluorescence resonance energy transfer) between allophycocyanin (APC) conjugated anti-His tag antibody and Europium-(Eu) conjugated Streptavidin.
The compounds of TABLES 1-9 (2 mM stock in dimethylsulfoxide) were diluted 3-fold in series in dimethylsulfoxide. 1.2 μL of a compound solution was added to each well of 384-well polypropylene black plates (NUNC). Thirty μL per well of 181 nM recombinant His-tag Y220C p53 DBD protein (amino acids #˜94-312; SEQ ID NO: 1) and 6.1 nM of APC conjugated anti-His tag antibody (Columbia Biosciences) in ice-cold Assay Buffer 1 (50 mM Tris-HCl, pH 7.4, 75 mM KCl, 0.75 mM DTT and 0.2 mg/ml, BSA) were added. As a background control. 30 μL of Assay Buffer 1 containing 6.1 nM of APC anti-His antibody (No Y220C protein) was also added into a second set of serially diluted compound plates. The samples were spun by centrifuge at 1,200 rpm (Eppendorf 5810R Plate centrifuge) for 1 minute and incubated at room temperature (20° C.) for 15 min. The samples were then further incubated at either 27° C. or 29° C. for 60 min. […] The samples were spun by centrifuge at 1,200 rpm for 1 min and incubated at room temperature (20° C.) for 20 min. Assay signals were monitored by reading excitation at 340 nm, and emission fluorescence at 615 nm and 665 nm on an Envision® reader. Normalized TR-FRET (time-resolved fluorescence resonance energy transfer) assay signal (Rn) was calculated by the formula: Rn=[(A−Ba−C×(D−Bd))/(D−Bd)]×(D−Bd) Wherein: • A is the fluorescence intensity of the sample at 665 nm; • D is the fluorescence intensity of the sample at 615 nm; • Ba and Bd are plate backgrounds at 665 nm and 615 nm, respectively; and • Dc is the fluorescence intensity of 0.67 nM Eu-SA in the assay buffer at 615 nm.
The cross-talk factor (C) was determined by the following formula: C=(Ac−Ba)/(Dc−Bd) wherein Ac is the fluorescence intensity of 0.67 nM Europium (Eu) conjugated Streptavidin in the assay buffer at 665 nm.

Row | Structure (SMILES) | Y220C SC150 (μM)
1 | CN1CC[C@@H](Nc2cccc3c2cc(-c2noc(CNC(=O)[C@@H]4C[C@@H]4C#N)n2)n3CC(F)(F)F)[C@@H](F)C1 (mixture of isomers) [Compound 195B, (1RS,2SR)-2-cyano-N-{[3-(4-{[(3S,4R)-3-fluoro-1-methylpiperidin-4-yl]amino}-1-(2,2,2-trifluoroethyl)-1H-indol-2-yl)-1,2,4-oxadiazol-5-yl]methyl}cyclopropane-1-carboxamide] | * (* = 0 μM ≤ SC150 < 0.1 μM)
2 | CN1CC[C@H](Nc2cccc3c2cc(-c2nnc(CNC(=O)C4CCCC4)s2)n3CC(F)(F)F)[C@H](F)C1 (racemic) [Compound 29B, (+/−)-N-{[5-(4-{[(3R,4S)-3-fluoro-1-methylpiperidin-4-yl]amino}-1-(2,2,2-trifluoroethyl)-1H-indol-2-yl)-1,3,4-thiadiazol-2-yl]methyl}cyclopentanecarboxamide] | ** (** = 0.1 μM ≤ SC150 < 0.5 μM)
3 | C[C@H]1C[C@H]1C(=O)NCc1nnc(-c2cc3c(NC4CCN(C)CC4)cccc3n2CC(F)(F)F)s1 (racemic) [Compound 33B, (+/−)-(1R,2S)-2-methyl-N-[(5-{4-[(1-methylpiperidin-4-yl)amino]-1-(2,2,2-trifluoroethyl)-1H-indol-2-yl}-1,3,4-thiadiazol-2-yl)methyl]cyclopropane-1-carboxamide] | ** (** = 0.1 μM ≤ SC150 < 0.5 μM)
4 | CN1CC[C@@H](Nc2cccc3c2cc(-c2nnc(CNC(=O)C4COC4)s2)n3CC(F)(F)F)[C@@H](F)C1 (racemic) [Compound 36B, (+/−)-N-{[5-(4-{[(3R,4S)-3-fluoro-1-methylpiperidin-4-yl]amino}-1-(2,2,2-trifluoroethyl)-1H-indol-2-yl)-1,3,4-thiadiazol-2-yl]methyl}oxetane-3-carboxamide] | ** (** = 0.1 μM ≤ SC150 < 0.5 μM)
5 | CN1CC[C@@H](Nc2cccc3c2cc(-c2nnc(CNC(=O)C4CCC4)s2)n3CC(F)(F)F)[C@@H](F)C1 (racemic) [Compound 37B, (+/−)-N-{[5-(4-{[(3R,4S)-3-fluoro-1-methylpiperidin-4-yl]amino}-1-(2,2,2-trifluoroethyl)-1H-indol-2-yl)-1,3,4-thiadiazol-2-yl]methyl}cyclobutanecarboxamide] | ** (** = 0.1 μM ≤ SC150 < 0.5 μM)
6 | CNCc1nnc(-c2cc3c(N[C@@H]4CCN(C)C[C@@H]4F)cccc3n2CC(F)(F)F)s1 (racemic) [Compound 43B, (+/−)-N-[(3R,4S)-3-fluoro-1-methylpiperidin-4-yl]-2-{5-[(methylamino)methyl]-1,3,4-thiadiazol-2-yl}-1-(2,2,2-trifluoroethyl)-1H-indol-4-amine] | **** (**** = 1 μM ≤ SC150 < 10 μM)
7 | CN1CC[C@@H](Nc2cccc3c2cc(-c2nnc(CNC(=O)OCc4ccccc4)s2)n3CC(F)(F)F)[C@@H](F)C1 (racemic) [Compound 44B, (+/−)-benzyl N-{[5-(4-{[(3R,4S)-3-fluoro-1-methylpiperidin-4-yl]amino}-1-(2,2,2-trifluoroethyl)-1H-indol-2-yl)-1,3,4-thiadiazol-2-yl]methyl}carbamate] | * (* = 0 μM ≤ SC150 < 0.1 μM)

Next, values leading:

Row | Y220C SC150 (μM) | Structure (SMILES)
8 | ** (** = 0.1 μM ≤ SC150 < 0.5 μM) | COc1cc(S(C)(=O)=O)ccc1NCc1nnc(-c2cc3c(N[C@H]4CCN(C)C[C@H]4F)cccc3n2CC(F)(F)F)s1 (racemic) [Compound 27B, (+/−)-N-[(3R,4S)-3-fluoro-1-methylpiperidin-4-yl]-2-(5-{[(4-methanesulfonyl-2-methoxyphenyl)amino]methyl}-1,3,4-thiadiazol-2-yl)-1-(2,2,2-trifluoroethyl)-1H-indol-4-amine]
9 | * (* = 0 μM ≤ SC150 < 0.1 μM) | COc1cc(S(C)(=O)=O)ccc1NCc1nnc(-c2cc3c(N[C@H]4CCN(C)C[C@@H]4F)cccc3n2CC(F)(F)F)s1 (racemic) [Compound 28B, (+/−)-N-[(3R,4R)-3-fluoro-1-methylpiperidin-4-yl]-2-(5-{[(4-methanesulfonyl-2-methoxyphenyl)amino]methyl}-1,3,4-thiadiazol-2-yl)-1-(2,2,2-trifluoroethyl)-1H-indol-4-amine]
10 | * (* = 0 μM ≤ SC150 < 0.1 μM) | CN1CC[C@H](Nc2cccc3c2cc(-c2nnc(CNC(=O)c4cccs4)s2)n3CC(F)(F)F)[C@H](F)C1 (racemic) [Compound 30B, (+/−)-N-{[5-(4-{[(3R,4S)-3-fluoro-1-methylpiperidin-4-yl]amino}-1-(2,2,2-trifluoroethyl)-1H-indol-2-yl)-1,3,4-thiadiazol-2-yl]methyl}thiophene-2-carboxamide]
11 | ** (** = 0.1 μM ≤ SC150 < 0.5 μM) | CN1CCC(Nc2cccc3c2cc(-c2nnc(CNC(=O)C4CC4(F)F)s2)n3CC(F)(F)F)CC1 (racemic) [Compound 32B, (+/−)-2,2-difluoro-N-[(5-{4-[(1-methylpiperidin-4-yl)amino]-1-(2,2,2-trifluoroethyl)-1H-indol-2-yl}-1,3,4-thiadiazol-2-yl)methyl]cyclopropane-1-carboxamide]
12 | * (* = 0 μM ≤ SC150 < 0.1 μM) | C[C@@H]1C[C@H]1C(=O)NCc1nnc(-c2cc3c(NC4CCN(C)CC4)cccc3n2CC(F)(F)F)s1 (racemic) [Compound 34B, (+/−)-(1R,2R)-2-methyl-N-[(5-{4-[(1-methylpiperidin-4-yl)amino]-1-(2,2,2-trifluoroethyl)-1H-indol-2-yl}-1,3,4-thiadiazol-2-yl)methyl]cyclopropane-1-carboxamide]
13 | * (* = 0 μM ≤ SC150 < 0.1 μM) | COC(=O)NCc1nnc(-c2cc3c(N[C@@H]4CCN(C)C[C@@H]4F)cccc3n2CC(F)(F)F)s1 (racemic) [Compound 38B, (+/−)-methyl N-{[5-(4-{[(3R,4S)-3-fluoro-1-methylpiperidin-4-yl]amino}-1-(2,2,2-trifluoroethyl)-1H-indol-2-yl)-1,3,4-thiadiazol-2-yl]methyl}carbamate]
14 | *** (*** = 0.5 μM ≤ SC150 < 1 μM) | CN1CCC(C(=O)NCc2nnc(-c3cc4c(N[C@@H]5CCN(C)C[C@@H]5F)cccc4n3CC(F)(F)F)s2)CC1 (racemic) [Compound 40B, (+/−)-N-{[5-(4-{[(3R,4S)-3-fluoro-1-methylpiperidin-4-yl]amino}-1-(2,2,2-trifluoroethyl)-1H-indol-2-yl)-1,3,4-thiadiazol-2-yl]methyl}-1-methylpiperidine-4-carboxamide]
15 | * (* = 0 μM ≤ SC150 < 0.1 μM) | CN1CCC(Nc2cccc3c2cc(-c2nnc(CNC(=O)[C@H]4C[C@@H]4c4ccccc4)s2)n3CC(F)(F)F)CC1 (racemic) [Compound 53B, (+/−)-(1S,2S)-N-[(5-{4-[(1-methylpiperidin-4-yl)amino]-1-(2,2,2-trifluoroethyl)-1H-indol-2-yl}-1,3,4-thiadiazol-2-yl)methyl]-2-phenylcyclopropane-1-carboxamide]

Same assay, conditions: concentration to increase DNA binding by […], incubated at either 27° C. or 29° C. for 60 min

Row | SC150 (μM) | Structure (SMILES)
16 | ++++ (++++ = 10 μM ≤ SC150 < 35 μM) | CN1CC[C@H](Nc2cccc3c2cc(-c2ccc(CNC4CC4)cc2)n3CC(F)(F)F)[C@H](F)C1 (racemic) [Compound 42A, (+/−)-2-{4-[(cyclopropylamino)methyl]phenyl}-N-[(3R,4S)-3-fluoro-1-methylpiperidin-4-yl]-1-(2,2,2-trifluoroethyl)-1H-indol-4-amine]
17 | + (+ = 0 μM ≤ SC150 < 2 μM) | COc1cc(S(C)(=O)=O)ccc1NCc1ccc(-c2cc3c(N[C@H]4CCN(C)C[C@H]4F)cccc3n2CC(F)(F)F)cc1 (racemic) [Compound 43A, (+/−)-N-[(3R,4S)-3-fluoro-1-methylpiperidin-4-yl]-2-(4-{[(4-methanesulfonyl-2-methoxyphenyl)amino]methyl}phenyl)-1-(2,2,2-trifluoroethyl)-1H-indol-4-amine]
18 | + (+ = 0 μM ≤ SC150 < 2 μM) | CN1CC[C@H](Nc2cccc3c2cc(-c2ccc(CNC(=O)c4ccccc4)cc2)n3CC(F)(F)F)[C@H](F)C1 (racemic) [Compound 45A, (+/−)-N-{[4-(4-{[(3R,4S)-3-fluoro-1-methylpiperidin-4-yl]amino}-1-(2,2,2-trifluoroethyl)-1H-indol-2-yl)phenyl]methyl}benzamide]
19 | + (+ = 0 μM ≤ SC150 < 2 μM) | CN1CC[C@H](Nc2cccc3c2cc(-c2ccc(CNC(=O)C4CC4)cc2)n3CC(F)(F)F)[C@H](F)C1 (racemic) [Compound 46A, (+/−)-N-{[4-(4-{[(3R,4S)-3-fluoro-1-methylpiperidin-4-yl]amino}-1-(2,2,2-trifluoroethyl)-1H-indol-2-yl)phenyl]methyl}cyclopropanecarboxamide]
